{"source": "patent US8883782B2", "about": "“Spiro-tetracyclic ring compounds as beta-secretase modulators and methods of use” (Amgen Inc., priority 2010, dated 2014)", "key": {"[1]": {"test_system": "Aβ40 in conditioned medium of cells stably expressing Amyloid Precursor Protein (APP)", "experiment": "In vitro BACE cell-based assay (Aβ40 in conditioned medium, sandwich ELISA)", "details": "read-out: HEK cell assay", "summary_of_the_method": "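Conditioned medium from stably APP-expressing cells treated with compound dose series is assayed for Aβ40 by sandwich ELISA with time-resolved fluorescence detection. IC50 is calculated from percent inhibition of Aβ40 against compound concentration.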"}, "[2]": {"molecular_target": "Beta Secretase enzyme (BACE) (Homo sapiens, UniProt P56817)", "sequence (P56817 46-501, species assumed)": "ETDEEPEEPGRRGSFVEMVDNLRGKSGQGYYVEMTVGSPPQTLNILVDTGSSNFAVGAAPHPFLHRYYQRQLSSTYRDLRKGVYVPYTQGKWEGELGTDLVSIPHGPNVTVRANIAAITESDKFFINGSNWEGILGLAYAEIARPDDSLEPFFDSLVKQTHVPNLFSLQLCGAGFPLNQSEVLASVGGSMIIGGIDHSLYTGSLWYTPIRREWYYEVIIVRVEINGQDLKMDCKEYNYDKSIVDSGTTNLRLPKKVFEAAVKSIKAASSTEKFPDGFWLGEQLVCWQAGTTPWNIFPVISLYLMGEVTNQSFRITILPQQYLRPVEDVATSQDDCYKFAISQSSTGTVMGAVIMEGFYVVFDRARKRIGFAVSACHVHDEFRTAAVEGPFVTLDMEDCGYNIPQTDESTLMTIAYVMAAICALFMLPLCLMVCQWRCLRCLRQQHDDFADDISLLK", "experiment": "In vitro enzymatic BACE FRET (fluorescence resonance energy transfer) assay", "type": "biochemical", "details": "average IC50, enzyme assay; read-out: BACE 1 FRET assay", "summary_of_the_method": "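A peptide bearing a fluorophore and quencher across the cleavage site serves as substrate at 50 nM. Reactions proceed one hour in acidic acetate buffer (0.05 M, pH 4.2) containing 10% DMSO final and 100 uM genapol, then are terminated with Tris and read fluorimetrically.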"}, "[3]": {"details": "Homo sapiens, HEK293, average IC50, HEK cells"}, "[4]": {"details": "Homo sapiens, HEK293, average IC50"}}, "note": "Read-outs that look alike come from different tables or passages of the source.", "data": [{"compound": "COc1ccncc1-c1ccc2c(c1)[C@@]1(COC(N)=N1)c1cc(C3=CCOCC3)ncc1O2", "note": "[Example 653, (5S)-3-(3,6-dihydro-2H-pyran-4-yl)-7-(4-methoxy-3-pyridinyl)spiro[chromeno[2,3-c]pyridine-5,4′-[1,3]oxazol]-2′-amine]", "values": [{"measurement": "IC50", "setting": "[1]; [3]", "result": 9, "unit": "nM"}, {"measurement": "IC50", "setting": "[2]", "result": 10.4, "unit": "nM"}]}, {"compound": "CC1(C)C[C@H](c2cnc3c(c2)[C@]2(COC(N)=N2)c2cc(-c4cccc(Cl)c4)ccc2O3)CCO1", "note": "[Example 473, (5S)-7-(3-chlorophenyl)-3-((4R)-2,2-dimethyltetrahydro-2H-pyran-4-yl)spiro[chromeno[2,3-b]pyridine-5,4′-[1,3]oxazol]-2′-amine]", "values": [{"measurement": "IC50", "setting": "[1]; [3]", "result": 15.5, "unit": "nM"}, {"measurement": "IC50", "setting": "[2]", "result": 2.1, "unit": "nM"}]}, {"compound": "Cn1cc(-c2cc(F)c3c(c2)[C@]2(COC(N)=N2)c2cc(-c4cncc(C#N)c4)ccc2O3)cn1", "note": "[Example 554, 5-((4S)-2-amino-5′-fluoro-7′-(1-methyl-1H-pyrazol-4-yl)spiro[1,3-oxazole-4,9′-xanthen]-2′-yl)-3-pyridinecarbonitrile]", "values": [{"measurement": "IC50", "setting": "[1]; [3]", "result": 6.3, "unit": "nM"}, {"measurement": "IC50", "setting": "[2]", "result": 1.6, "unit": "nM"}]}, {"compound": "(4S)-4′-fluoro-7′-(2-fluoro-3-pyridinyl)-2′-((2R)-tetrahydro-2H-pyran-2-yl)spiro[1,3-oxazole-4,9′-xanthen]-2-amine [Example 220]", "values": [{"measurement": "IC50", "setting": "[1]; average IC50", "result": 12.8, "unit": "nM"}, {"measurement": "IC50", "setting": "[2]", "result": 1.6, "unit": "nM"}]}, {"compound": "NC1=N[C@@]2(CO1)c1cc(-c3cccnc3F)ccc1Oc1c(F)cc(-n3cccn3)cc12", "note": "[Example 691, (4S)-4′-fluoro-7′-(2-fluoro-3-pyridinyl)-2′-(1H-pyrazol-1-yl)spiro[1,3-oxazole-4,9′-xanthen]-2-amine]", "values": [{"measurement": "IC50", "setting": "[1]; [3]", "result": 63, "unit": "nM"}, {"measurement": "IC50", "setting": "[2]", "result": 2, "unit": "nM"}]}, {"compound": "CC1(C)C=C(c2cc3c(c(F)n2)Oc2ccc(-c4cccnc4F)cc2[C@]32CSC(N)=N2)CCO1", "note": "[Example 1035, (5R)-3-(6,6-dimethyl-3,6-dihydro-2H-pyran-4-yl)-1-fluoro-7-(2-fluoro-3-pyridinyl)spiro[chromeno[2,3-c]pyridine-5,4′-[1,3]thiazol]-2′-amine]", "values": [{"measurement": "IC50", "setting": "[1]; [4]", "result": 14, "unit": "nM"}, {"measurement": "IC50", "setting": "[2]", "result": 1.3, "unit": "nM"}]}, {"compound": "NC1=N[C@]2(CO1)c1ccncc1Oc1ccc(-c3c(F)ccnc3F)cc12", "note": "[Example 677, (5S)-7-(2,4-difluoro-3-pyridinyl)spiro[chromeno[2,3-c]pyridine-5,4′-[1,3]oxazol]-2′-amine]", "values": [{"measurement": "IC50", "setting": "[1]; [3]", "result": 580, "unit": "nM"}, {"measurement": "IC50", "setting": "[2]", "result": 51.6, "unit": "nM"}]}, {"compound": "CC1(C#Cc2cnc3c(c2)[C@]2(COC(N)=N2)c2cc(O)ccc2O3)COC1", "note": "[Example 690, (5S)-2′-amino-3-((3-methyl-3-oxetanyl)ethynyl)spiro[chromeno[2,3-b]pyridine-5,4′-[1,3]oxazol]-7-ol]", "values": [{"measurement": "IC50", "setting": "[1]; [3]", "result": 2150, "unit": "nM"}, {"measurement": "IC50", "setting": "[2]", "result": 346, "unit": "nM"}]}, {"compound": "NC1=N[C@@]2(CO1)c1cc(-c3cccnc3)ccc1Oc1c(F)cc(N3CCCC3=O)cc12", "note": "[Example 792, 1-((4S)-2-amino-4′-fluoro-7′-(3-pyridinyl)spiro[1,3-oxazole-4,9′-xanthen]-2′-yl)-2-pyrrolidinone]", "values": [{"measurement": "IC50", "setting": "[1]; [4]", "result": 30, "unit": "nM"}, {"measurement": "IC50", "setting": "[2]", "result": 5.1, "unit": "nM"}]}, {"compound": "Cc1ccc(-c2cnc3c(c2)[C@]2(CSC(N)=N2)c2cc(-c4cnccc4F)ccc2O3)cn1", "note": "[Example 766, (5S)-7-(4-fluoro-3-pyridinyl)-3-(6-methyl-3-pyridinyl)spiro[chromeno[2,3-b]pyridine-5,4′-[1,3]thiazol]-2′-amine]", "values": [{"measurement": "IC50", "setting": "[1]; [4]", "result": 10, "unit": "nM"}, {"measurement": "IC50", "setting": "[2]", "result": 1.2, "unit": "nM"}]}, {"compound": "NC1=N[C@@]2(CO1)c1cc(-c3cccnc3F)ccc1Oc1ncc(C#CC3(O)COC3)cc12", "note": "[Example 519, 3-(((5S)-2′-amino-7-(2-fluoro-3-pyridinyl)spiro[chromeno[2,3-b]pyridine-5,4′-[1,3]oxazol]-3-yl)ethynyl)-3-oxetanol]", "values": [{"measurement": "IC50", "setting": "[1]; [3]", "result": 29.7, "unit": "nM"}, {"measurement": "IC50", "setting": "[2]", "result": 3.2, "unit": "nM"}]}, {"compound": "COc1nc(C2CCCOC2)cc2c1Oc1ccc(-c3cccnc3F)cc1[C@@]21COC(N)=N1", "note": "(stereo partly drawn) [Example 844, (5S)-7-(2-fluoro-3-pyridinyl)-1-methoxy-3-(tetrahydro-2H-pyran-3-yl)spiro[chromeno[2,3-c]pyridine-5,4′-[1,3]oxazol]-2′-amine]", "values": [{"measurement": "IC50", "setting": "[1]; [4]", "result": 66, "unit": "nM"}, {"measurement": "IC50", "setting": "[2]", "result": 6.7, "unit": "nM"}]}, {"compound": "NC1=N[C@@]2(CO1)c1cc(C#CC3CC3)ccc1Oc1cnc(C3=CCOCC3)cc12", "note": "[Example 159, (5S)-7-(cyclopropylethynyl)-3-(3,6-dihydro-2H-pyran-4-yl)spiro[chromeno[2,3-c]pyridine-5,4′-[1,3]oxazol]-2′-amine]", "values": [{"measurement": "IC50", "setting": "[1]; [4]", "result": 84, "unit": "nM"}, {"measurement": "IC50", "setting": "[2]", "result": 4.9, "unit": "nM"}]}, {"compound": "COc1ncc(-c2cc(F)c3c(c2)[C@]2(COC(N)=N2)c2cc(-c4cccnc4F)ccc2O3)cn1", "note": "[Example 213, (4S)-4′-fluoro-7′-(2-fluoro-3-pyridinyl)-2′-(2-methoxy-5-pyrimidinyl)spiro[1,3-oxazole-4,9′-xanthen]-2-amine]", "values": [{"measurement": "IC50", "setting": "[1]; [4]", "result": 21.6, "unit": "nM"}, {"measurement": "IC50", "setting": "[2]", "result": 2.7, "unit": "nM"}]}, {"compound": "CC1(C)C=C(c2cnc3c(c2)[C@]2(CSC(N)=N2)c2cc(-c4cccc(C#N)c4F)ccc2O3)CCO1", "note": "[Example 779, 3-((5S)-2′-amino-3-(6,6-dimethyl-3,6-dihydro-2H-pyran-4-yl)spiro[chromeno[2,3-b]pyridine-5,4′-[1,3]thiazol]-7-yl)-2-fluorobenzonitrile]", "values": [{"measurement": "IC50", "setting": "[1]; [4]", "result": 319, "unit": "nM"}, {"measurement": "IC50", "setting": "[2]", "result": 4.8, "unit": "nM"}]}, {"compound": "Cn1cc(-c2cccc(-c3ccc4c(c3)[C@@]3(COC(N)=N3)c3cc(C5=CCOCC5)ncc3O4)c2)cn1", "note": "[Example 243, (5S)-3-(3,6-dihydro-2H-pyran-4-yl)-7-(3-(1-methyl-1H-pyrazol-4-yl)phenyl)spiro[chromeno[2,3-c]pyridine-5,4′-[1,3]oxazol]-2′-amine]", "values": [{"measurement": "IC50", "setting": "[1]; [4]", "result": 287, "unit": "nM"}, {"measurement": "IC50", "setting": "[2]", "result": 19.5, "unit": "nM"}]}, {"compound": "CC1(C#Cc2cnc3c(c2)C2(CSC(N)=N2)c2cc(-c4cccnc4F)ccc2O3)COC1", "note": "(stereo not shown) [Example 98]", "values": [{"measurement": "IC50", "setting": "[1]; [3]", "result": 4.6, "unit": "nM"}, {"measurement": "IC50", "setting": "[2]", "result": 2, "unit": "nM"}]}, {"compound": "CC(C)(O)C#Cc1cc(F)c2c(c1)[C@]1(COC(N)=N1)c1cc(-c3cccnc3F)ccc1O2", "note": "[Example 199, 4-((4S)-2-amino-4′-fluoro-7′-(2-fluoro-3-pyridinyl)spiro[1,3-oxazole-4,9′-xanthen]-2′-yl)-2-methyl-3-butyn-2-ol]", "values": [{"measurement": "IC50", "setting": "[1]; [4]", "result": 5.1, "unit": "nM"}, {"measurement": "IC50", "setting": "[2]", "result": 0.8, "unit": "nM"}]}, {"compound": "N#Cc1cccc(-c2ccc3c(c2)[C@@]2(COC(N)=N2)c2cc(N4CCC(F)(F)CC4)ncc2O3)c1", "note": "[Example 424, 3-((5S)-2′-amino-3-(4,4-difluoro-1-piperidinyl)spiro[chromeno[2,3-c]pyridine-5,4′-[1,3]oxazol]-7-yl)benzonitrile]", "values": [{"measurement": "IC50", "setting": "[1]; [3]", "result": 18, "unit": "nM"}, {"measurement": "IC50", "setting": "[2]", "result": 1.5, "unit": "nM"}]}, {"compound": "NC1=N[C@@]2(CO1)c1cc(-c3cccnc3F)ccc1Oc1cc(F)c(-c3ccncc3)cc12", "note": "[Example 321, (4S)-3′-fluoro-7′-(2-fluoro-3-pyridinyl)-2′-(4-pyridinyl)spiro[1,3-oxazole-4,9′-xanthen]-2-amine]", "values": [{"measurement": "IC50", "setting": "[1]; [4]", "result": 61.5, "unit": "nM"}, {"measurement": "IC50", "setting": "[2]", "result": 20.3, "unit": "nM"}]}, {"compound": "CC1(C#Cc2cnc3c(c2)[C@@]2(COC(N)=N2)c2cc(-c4cncc(F)c4)c(F)cc2O3)COC1", "note": "[Example 624, (5R)-8-fluoro-7-(5-fluoro-3-pyridinyl)-3-((3-methyl-3-oxetanyl)ethynyl)spiro[chromeno[2,3-b]pyridine-5,4′-[1,3]oxazol]-2′-amine]", "values": [{"measurement": "IC50", "setting": "[1]; [3]", "result": 762, "unit": "nM"}, {"measurement": "IC50", "setting": "[2]", "result": 986, "unit": "nM"}]}, {"compound": "(4S)-4′-fluoro-7′-(2-fluoro-3-pyridinyl)-2′-((2S)-tetrahydro-2H-pyran-2-yl)spiro[1,3-oxazole-4,9′-xanthen]-2-amine [Example 219]", "values": [{"measurement": "IC50", "setting": "[1]; average IC50", "result": 6.2, "unit": "nM"}, {"measurement": "IC50", "setting": "[2]", "result": 0.9, "unit": "nM"}]}, {"compound": "NC1=N[C@]2(CS1)c1cc(-c3cccnc3F)ccc1Oc1cnc(C3=CCOCC3)cc12", "note": "[Example 613, (5R)-3-(3,6-dihydro-2H-pyran-4-yl)-7-(2-fluoro-3-pyridinyl)spiro[chromeno[2,3-c]pyridine-5,4′-[1,3]thiazol]-2′-amine]", "values": [{"measurement": "IC50", "setting": "[1]; [3]", "result": 2560, "unit": "nM"}, {"measurement": "IC50", "setting": "[2]", "result": 227, "unit": "nM"}]}]}
